Measured values as given in patent US8969554B2, “6-acyl-1,2,4-triazine-3,5-dione derivative and herbicides” (Kumiai Chemical Industry Co., Ltd., priority 2010, dated 2015).

Legend:
Type in all cases: in vivo
[1] = system: A. retroflexus; experiment: Herbicidal activity by field soil treatment (Test example 2); set-up: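 index 0 to 10 in 10% steps of herbicidal effect with 10 meaning complete death and 0 below 10%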; details: 1000 g effective component per hectare, day 21 after the treatment
How it was run: (§1)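 Herbicidal effect is rated by fixed criteria on day 21 post-treatment. Before that, pots of field soil holding freshly sown, soil-covered seeds receive a surface spray of diluted wettable powder (1000 g per hectare effective component, spray volume 1000 liters per hectare) and are kept in a greenhouse.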

[2] = system: Echinochloa crus-galli; experiment: as above; set-up: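 index 0 to 10 in 10% steps of herbicidal effect with 10 meaning complete death and 0 below 10%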; details: 1000 g effective component per hectare, day 21 after the treatment
How it was run: as §1

[3] = system: Indian millet; experiment: as above; set-up: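 index 0 to 10 in 10% steps of herbicidal effect with 10 meaning complete death and 0 below 10%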; details: 1000 g effective component per hectare, day 21 after the treatment
How it was run: as §1

[4] = system: A. retroflexus; experiment: Herbicidal activity by field foliage treatment (Test example 3); set-up: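 index 0 to 10 in 10% steps of herbicidal effect with 10 meaning complete death and 0 below 10%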; details: 1000 g effective component per hectare, day 14 after the treatment
How it was run: (§2)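 Herbicidal effect is rated on a scoring scale 14 days after treatment. Seedlings raised 2 weeks in field soil under glass receive an overall foliar spray of wettable powder diluted in water, giving 1000 g active component per hectare.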

[5] = system: Indian millet; experiment: as above; set-up: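 index 0 to 10 in 10% steps of herbicidal effect with 10 meaning complete death and 0 below 10%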; details: 1000 g effective component per hectare, day 14 after the treatment
How it was run: as §2

[6] = system: Echinochloa crus-galli; experiment: as above; set-up: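 index 0 to 10 in 10% steps of herbicidal effect with 10 meaning complete death and 0 below 10%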; details: 1000 g effective component per hectare, day 14 after the treatment
How it was run: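 Potted field-soil plants grown 2 weeks in a greenhouse were sprayed over the whole foliage with diluted wettable powder at 1000 L/ha, delivering 1000 g active ingredient per hectare. Herbicidal effect scored by visual criteria 14 days after treatment.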

[7] = system: Setaria viridis; experiment: as above; details: 1000 g effective component per hectare, day 14 after the treatment;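 also: index 0 to 10 in 10% steps of herbicidal effect with 10 meaning complete death and 0 below 10%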
Procedure: Test example 3 Test for Determining Herbicidal Activity by Field Foliage Treatment A 80 cm^2 wide plastic pot was filled with a field soil and seeds of each of Indian millet and A. retroflexus were sowed and then incubated for 2 weeks in a green house. The wettable powder produced with reference to the Formulation example 1 was diluted water, and applied from the air to entire body of the plant as foliage treatment by using a small sprayer in an amount of 1000 liters per hectare so that the effective component is 1000 g per hectare. After that, the plants were cultivated in a greenhouse, and on day 14 after the treatment, evaluation was made by the criteria described in Table 72 for determining the herbicidal effects.

[8] = system: Echinochloa oryzicola; experiment: Herbicidal activity by paddy field soil treatment (Test Example 1); set-up: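 index 0 to 10 in 10% steps of herbicidal effect with 10 meaning complete death and 0 below 10%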; details: 1000 g of effective component per hectare, evaluated on day 21 after the treatment, criteria of Table 72
How it was run: (§3)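 Herbicidal effect is rated on a graded scale 21 days after treatment. Treatment: wettable powder diluted in water, applied onto the flood water (3 cm deep) of sown paddy-soil pots on the day after sowing, 1000 g active component per hectare, greenhouse cultivation.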

[9] = system: Monochoria vaginalis; experiment: as above; set-up: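 index 0 to 10 in 10% steps of herbicidal effect with 10 meaning complete death and 0 below 10%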; details: 1000 g of effective component per hectare, evaluated on day 21 after the treatment, criteria of Table 72
How it was run: as §3

[10] = system: Scirpus juncoides Rocxb.; experiment: as above; set-up: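 index 0 to 10 in 10% steps of herbicidal effect with 10 meaning complete death and 0 below 10%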; details: applied on water surface, 1000 g of effective component per hectare, day 21 after the treatment
How it was run: as §3

Row | SMILES | herbicidal effect index, Amaranthus retroflexus [1] | herbicidal effect index, Echinochloa crus-galli [2] | herbicidal effect index, Abutilon theophrasti [3] | herbicidal effect index, Amaranthus retroflexus [4] | herbicidal effect index, Abutilon theophrasti [5] | herbicidal effect index, Echinochloa crus-galli [6] | herbicidal effect index, Setaria viridis [7] | Herbicidal effects index number, Echinochloa oryzicola [8] | Herbicidal effects index number, Monochoria vaginalis [9] | herbicidal effect index, S. juncoides Rocxb. [10]
1 | COc1c(F)cc(-n2c(=O)c(C(=O)C3=C(O)CCCC3=O)nn(C)c2=O)cc1F [Compound I-167] | 10 | 8 | 10 | 10 | 10 | 10 | 8 | – | – | –
2 | CC(CCn1c(=O)c(C(=O)C2=C(O)CCCC2=O)nn(C)c1=O)=C(F)F [I-27] | 10 | 10 | 10 | 9 | 9 | 9 | 6 | 10 | 10 | 10
3 | CSCn1c(=O)c(C(=O)C2=C(O)CCCC2=O)nn(C)c1=O [I-43] | 10 | 10 | – | 10 | 9 | 8 | 8 | 10 | 10 | 10
4 | COc1ccccc1-n1c(=O)c(C(=O)C2=C(O)CCCC2=O)nn(C)c1=O [I-60] | 10 | 10 | 10 | 10 | 10 | 10 | 9 | 10 | 10 | 10
5 | Cn1nc(C(=O)C2=C(O)CCCC2=O)c(=O)n(-c2ccc(F)cc2F)c1=O [I-78] | 10 | 10 | 10 | 10 | 10 | 10 | 10 | 10 | 10 | 10
6 | Cc1ccc(-n2c(=O)c(C(=O)C3=C(O)CCCC3=O)nn(C)c2=O)c(C)c1 [I-90] | 10 | 8 | 10 | 10 | 9 | 8 | 7 | 9 | 10 | 10
7 | Cc1ccc(Cl)cc1-n1c(=O)c(C(=O)C2=C(O)CCCC2=O)nn(C)c1=O [I-138] | 10 | 9 | 9 | 10 | 9 | 8 | 8 | 10 | 10 | 10
8 | Cn1nc(C(=O)C2=C(O)CCCC2=O)c(=O)n(-c2ccc(F)cn2)c1=O [I-184] | 10 | 8 | 10 | 10 | 9 | 10 | 8 | 10 | 10 | 10
9 | Cn1nc(C(=O)C2=C(O)CCCC2=O)c(=O)n(-c2ccc(Cl)cn2)c1=O [I-185] | 10 | 9 | 10 | 10 | 9 | 10 | 9 | 8 | 9 | 9
10 | Cn1nc(C(=O)C2=C(O)CCCC2=O)c(=O)n(-c2ccccc2)c1=S [I-263] | 10 | – | 8 | 10 | 10 | 9 | 9 | 10 | 10 | 10
11 | C#Cc1ccc(-n2c(=O)c(C(=O)C3=C(O)CCCC3=O)nn(C)c2=O)nc1 [I-463] | 7 | – | 10 | 10 | 9 | 7 | 7 | 10 | 10 | 10
12 | Cn1nc(C(=O)C2=C(O)CCCC2=O)c(=O)n(-c2cc(Cl)c(Cl)c(Cl)c2)c1=O [I-465] | 10 | – | 10 | 10 | 10 | 8 | 10 | 10 | 10 | 10
13 | Cn1nc(C(=O)C2=C(O)CCCC2=O)c(=O)n(-c2cc(C(F)(F)F)cc(C(F)(F)F)c2)c1=O [I-470] | 8 | – | 7 | 10 | 10 | 8 | 9 | 10 | 10 | 10
14 | Cn1nc(C(=O)O)c(=O)n(-c2cc(Cl)c(Cl)c(Cl)c2)c1=O [V-358] | 10 | – | 10 | 10 | 10 | 8 | 10 | 10 | 10 | 10
15 | Cn1nc(C(=O)O)c(=O)n(-c2cc(C(F)(F)F)cc(C(F)(F)F)c2)c1=O [V-364] | 8 | – | 7 | 10 | 10 | 8 | 9 | 10 | 10 | 10
16 | Cn1nc(C(=O)C2=C(O)C(C)(C)C(=O)C(C)(C)C2=O)c(=O)n(-c2ccccc2)c1=O [VI-1] | 10 | – | 10 | 10 | 10 | 10 | 10 | 10 | 10 | 10
17 | Cn1nc(C(=O)C2=C(O)CC(C)(C)CC2=O)c(=O)n(-c2ccccc2)c1=O [VI-6] | 10 | – | 9 | 10 | 10 | 8 | 10 | 10 | 10 | 10
